This passage reports IC50 results from patent US6815447B2, “N-type calcium channel antagonists for the treatment of pain” (Astrazeneca AB, priority 2000, dated 2004).

Chain of N-type calcium channel (Q00975 whole entry): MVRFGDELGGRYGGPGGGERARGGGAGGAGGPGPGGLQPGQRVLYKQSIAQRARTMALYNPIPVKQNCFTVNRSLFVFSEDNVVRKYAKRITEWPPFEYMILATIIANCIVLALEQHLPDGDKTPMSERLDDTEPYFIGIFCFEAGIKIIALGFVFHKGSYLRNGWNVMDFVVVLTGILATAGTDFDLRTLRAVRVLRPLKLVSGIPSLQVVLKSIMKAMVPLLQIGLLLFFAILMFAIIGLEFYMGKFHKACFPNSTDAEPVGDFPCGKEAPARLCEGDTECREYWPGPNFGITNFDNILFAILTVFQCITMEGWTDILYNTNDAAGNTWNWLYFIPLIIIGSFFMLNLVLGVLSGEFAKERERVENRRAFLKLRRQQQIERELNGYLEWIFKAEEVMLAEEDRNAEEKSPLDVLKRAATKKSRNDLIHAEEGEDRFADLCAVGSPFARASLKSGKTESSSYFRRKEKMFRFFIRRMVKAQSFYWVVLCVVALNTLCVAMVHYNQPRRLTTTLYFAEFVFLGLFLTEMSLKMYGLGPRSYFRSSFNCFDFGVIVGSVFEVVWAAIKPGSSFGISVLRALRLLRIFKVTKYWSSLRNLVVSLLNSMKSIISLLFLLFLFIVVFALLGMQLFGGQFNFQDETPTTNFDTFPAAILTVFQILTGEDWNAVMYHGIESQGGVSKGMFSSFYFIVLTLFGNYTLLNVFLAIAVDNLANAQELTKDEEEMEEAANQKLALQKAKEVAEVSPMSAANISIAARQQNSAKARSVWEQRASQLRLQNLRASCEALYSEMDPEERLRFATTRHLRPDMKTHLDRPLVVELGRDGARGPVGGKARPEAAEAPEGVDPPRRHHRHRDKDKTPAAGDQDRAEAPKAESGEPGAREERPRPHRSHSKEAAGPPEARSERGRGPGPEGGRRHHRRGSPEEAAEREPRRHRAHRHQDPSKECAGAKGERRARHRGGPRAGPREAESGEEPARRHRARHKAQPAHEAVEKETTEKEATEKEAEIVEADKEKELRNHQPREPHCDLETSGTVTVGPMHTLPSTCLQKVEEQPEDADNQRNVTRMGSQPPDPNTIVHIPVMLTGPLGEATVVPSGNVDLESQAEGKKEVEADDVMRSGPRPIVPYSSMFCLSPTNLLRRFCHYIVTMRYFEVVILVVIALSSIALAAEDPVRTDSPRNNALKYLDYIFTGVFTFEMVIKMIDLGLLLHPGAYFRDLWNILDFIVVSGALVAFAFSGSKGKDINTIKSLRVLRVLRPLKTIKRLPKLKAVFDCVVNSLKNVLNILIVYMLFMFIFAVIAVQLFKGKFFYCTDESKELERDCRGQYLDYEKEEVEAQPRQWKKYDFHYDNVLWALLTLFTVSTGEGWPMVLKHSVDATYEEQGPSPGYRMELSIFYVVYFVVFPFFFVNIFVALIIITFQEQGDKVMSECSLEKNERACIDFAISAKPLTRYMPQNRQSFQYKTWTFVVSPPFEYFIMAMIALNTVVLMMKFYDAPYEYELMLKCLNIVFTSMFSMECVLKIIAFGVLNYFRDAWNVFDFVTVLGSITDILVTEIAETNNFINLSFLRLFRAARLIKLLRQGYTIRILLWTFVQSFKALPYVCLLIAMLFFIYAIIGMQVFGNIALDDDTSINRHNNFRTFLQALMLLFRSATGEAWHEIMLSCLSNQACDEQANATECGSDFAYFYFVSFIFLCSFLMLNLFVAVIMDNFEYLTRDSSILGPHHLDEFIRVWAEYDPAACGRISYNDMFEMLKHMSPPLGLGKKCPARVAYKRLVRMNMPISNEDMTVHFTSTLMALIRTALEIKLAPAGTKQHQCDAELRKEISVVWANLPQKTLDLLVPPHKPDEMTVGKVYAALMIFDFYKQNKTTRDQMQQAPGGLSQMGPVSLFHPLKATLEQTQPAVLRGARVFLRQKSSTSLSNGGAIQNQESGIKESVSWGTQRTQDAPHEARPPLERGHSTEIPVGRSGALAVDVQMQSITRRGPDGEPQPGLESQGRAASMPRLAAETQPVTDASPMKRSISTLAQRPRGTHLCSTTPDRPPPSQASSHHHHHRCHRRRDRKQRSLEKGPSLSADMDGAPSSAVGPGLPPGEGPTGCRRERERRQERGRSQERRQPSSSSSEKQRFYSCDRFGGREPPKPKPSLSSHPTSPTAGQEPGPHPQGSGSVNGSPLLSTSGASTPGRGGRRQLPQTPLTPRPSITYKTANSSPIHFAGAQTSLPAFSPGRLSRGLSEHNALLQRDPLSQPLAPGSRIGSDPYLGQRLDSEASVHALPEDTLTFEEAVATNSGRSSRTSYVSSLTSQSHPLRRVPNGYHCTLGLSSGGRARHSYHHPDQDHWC
Chain of N-type calcium channel (P54284 whole entry partner): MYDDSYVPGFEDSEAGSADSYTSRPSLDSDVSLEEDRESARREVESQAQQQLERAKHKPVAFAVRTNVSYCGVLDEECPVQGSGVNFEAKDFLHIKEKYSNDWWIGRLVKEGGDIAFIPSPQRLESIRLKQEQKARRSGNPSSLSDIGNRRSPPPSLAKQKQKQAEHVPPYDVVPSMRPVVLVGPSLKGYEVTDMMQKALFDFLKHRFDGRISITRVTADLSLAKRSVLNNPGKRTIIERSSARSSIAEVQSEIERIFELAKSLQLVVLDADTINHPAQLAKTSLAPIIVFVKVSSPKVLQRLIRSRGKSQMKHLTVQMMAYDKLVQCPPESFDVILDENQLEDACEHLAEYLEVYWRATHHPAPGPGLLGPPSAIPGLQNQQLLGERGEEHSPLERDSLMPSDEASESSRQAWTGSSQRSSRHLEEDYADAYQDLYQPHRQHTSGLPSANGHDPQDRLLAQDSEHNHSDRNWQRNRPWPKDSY
Chain of N-type calcium channel (P54289 25-956 partner limits assumed): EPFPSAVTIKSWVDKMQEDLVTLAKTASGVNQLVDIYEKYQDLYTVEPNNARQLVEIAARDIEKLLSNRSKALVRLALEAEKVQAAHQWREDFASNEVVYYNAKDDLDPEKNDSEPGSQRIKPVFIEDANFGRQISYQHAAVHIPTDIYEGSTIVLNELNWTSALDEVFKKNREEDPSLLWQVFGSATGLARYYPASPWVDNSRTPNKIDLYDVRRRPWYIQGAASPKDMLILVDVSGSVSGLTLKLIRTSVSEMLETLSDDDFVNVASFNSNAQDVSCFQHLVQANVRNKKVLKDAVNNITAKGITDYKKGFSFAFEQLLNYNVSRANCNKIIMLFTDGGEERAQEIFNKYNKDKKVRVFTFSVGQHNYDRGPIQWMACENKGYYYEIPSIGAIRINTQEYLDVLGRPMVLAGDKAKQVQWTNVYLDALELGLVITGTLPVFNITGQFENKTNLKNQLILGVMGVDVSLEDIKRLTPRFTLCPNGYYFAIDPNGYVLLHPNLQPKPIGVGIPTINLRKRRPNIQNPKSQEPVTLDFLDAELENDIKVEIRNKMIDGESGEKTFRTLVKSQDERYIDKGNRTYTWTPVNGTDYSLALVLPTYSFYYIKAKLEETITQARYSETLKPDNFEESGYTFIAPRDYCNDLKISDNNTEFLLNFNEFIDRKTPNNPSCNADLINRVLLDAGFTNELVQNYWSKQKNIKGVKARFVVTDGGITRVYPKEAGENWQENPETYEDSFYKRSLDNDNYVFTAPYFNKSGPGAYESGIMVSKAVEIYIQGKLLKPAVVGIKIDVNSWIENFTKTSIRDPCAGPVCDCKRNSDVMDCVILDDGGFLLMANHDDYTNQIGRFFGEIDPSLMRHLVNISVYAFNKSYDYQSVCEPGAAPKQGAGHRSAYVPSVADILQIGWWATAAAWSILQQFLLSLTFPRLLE
Chain of N-type calcium channel (P54289 957-1103 partner limits assumed): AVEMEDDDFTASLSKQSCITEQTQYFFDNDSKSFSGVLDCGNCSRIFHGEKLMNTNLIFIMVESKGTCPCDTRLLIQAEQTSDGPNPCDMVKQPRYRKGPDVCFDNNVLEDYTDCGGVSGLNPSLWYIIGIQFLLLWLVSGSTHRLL

This experiment has as its target N-type calcium channel (Homo sapiens, UniProt Q00975). Kind of experiment: N-channel FLIPR assay (inhibition of K+-evoked calcium flux in neuronally differentiated IMR32 cells). Format: cell-based. The note with it: 80 mM K+ stimulus, read-out: IC50 for the N-type calcium channel, as measured by the FLIPR assay.
As for `Nc1nc(Nc2ccc3nc(-c4ccccc4)cc(N)c3c2)cc(C(F)(F)F)n1` [Example 4, N6-(2-Amino-6-trifluoromethyl-pyrimidin-4-yl)-2-phenyl-quinoline-4,6-diamine], the IC50 worked out at 3.57 µM.

Regarding `COc1ccccc1-c1cc(Nc2ccc3nc(-c4ccccc4)cc(N)c3c2)nc(N)n1` [Example 75, N6-[2-Amino-6-(2-methoxy-phenyl)-pyrimidin-4-yl]-2-phenyl-quinoline-4,6-diamine], the IC50 is 10.5 µM.

`Cc1cc(N)c2cc(Nc3cc(-c4ccccc4F)nc(N)n3)ccc2n1` [Example 66, N6-[2-Amino-6-(2-fluoro-phenyl)-pyrimidin-4-yl]-2-methyl-quinoline-4,6-diamine]: the IC50 amounted to 2.37 µM.

With `Cc1cc(N)c2cc(Nc3cc(-c4cccc(F)c4)nc(N)n3)ccc2n1` [Example 74, N6-[2-Amino-6-(3-fluoro-phenyl)-pyrimidin-4-yl]-2-methyl-quinoline-4,6-diamine], the IC50 was determined as 3.56 µM.
